Source: US12338484B2, “FRET biosensor for detecting and reporting NAD+/NADH ratio changes” (Sartorius BioAnalytical Instruments, Inc., priority 2022, dated 2025)

Key:
Assay type in all cases: biochemical
[1] = molecular target: T1, Thermus aquaticus T-Rex FRET fusion, initial construct #8, Rex(78-211)-Rex(78-189)-cpmEGFP(173/174)-Rex(190-211)-mKOk, SEQ ID NO: 168 (Thermus aquaticus, UniProt Q9X2V5, INS189[…]); test: FRET response (emission spectra) of purified initial construct #8 in absence or presence of 40 uM NADH; set-up: key: Good response: Constructs with very clear and robust spectra separation; Poor response: those with noticeable but small spectra separation; No response: those having no spectra separation
T1 construct: His-tag purified from E. coli
Method: (§1) 16 initial FRET constructs (See Table 3) were constructed using expression vector pET28c with a T7 promoter and lac operator and expressed in E. coli. Cells were collected and lysed using a commercially-available lysis buffer. Proteins of interest were isolated from the lysates using Ni-NTA magnetic beads. Eluted proteins were subjected to buffer exchange and final protein concentrating. To test performance of the initial FRET constructs, their emission spectra was recorded on a plate reader in absence or presence of 40 uM NADH. Resulting emission spectra with or without the ligand were normalized and overlaid for each construct. Constructs with very clear and robust spectra separation were labeled as having “good response”, those with noticeable but small spectra separation were labeled as having “poor response”, and finally those having no spectra separation were labeled as having “no response”.

[2] = molecular target: Thermus aquaticus T-Rex FRET fusion, initial construct #16, Rex(A)-mKOk-Rex(B)-mEGFP, SEQ ID NO: 176 (Thermus aquaticus, UniProt Q9X2V5, E116G/F189I/K117M/K204T/K47E/R46D/R58D/S30A/Y98W); test: FRET response (emission spectra) of purified initial construct #16 in absence or presence of 40 uM NADH; set-up: key: Good response: Constructs with very clear and robust spectra separation; Poor response: those with noticeable but small spectra separation; No response: those having no spectra separation
Method: as §1

[3] = molecular target: Thermus aquaticus T-Rex FRET fusion, initial construct #11, mKOk-Rex(A)-cpmEGFP(173/174)-Rex(B), SEQ ID NO: 171 (Thermus aquaticus, UniProt Q9X2V5, E116G/F189I/K117M/K204T/K47E/R46D/R58D/S30A/Y98W); test: FRET response (emission spectra) of purified initial construct #11 in absence or presence of 40 uM NADH; set-up: key: Good response: Constructs with very clear and robust spectra separation; Poor response: those with noticeable but small spectra separation; No response: those having no spectra separation
Method: as §1

[4] = molecular target: Thermus aquaticus T-Rex FRET fusion, initial construct #12, Rex(A)-cpmEGFP(173/174)-Rex(B)-mKOk, SEQ ID NO: 172 (Thermus aquaticus, UniProt Q9X2V5, E116G/F189I/K117M/K204T/K47E/R46D/R58D/S30A/Y98W); test: FRET response (emission spectra) of purified initial construct #12 in absence or presence of 40 uM NADH; set-up: key: Good response: Constructs with very clear and robust spectra separation; Poor response: those with noticeable but small spectra separation; No response: those having no spectra separation
Method: as §1

[5] = molecular target: Thermus aquaticus T-Rex FRET fusion, initial construct #14, Rex(A)-mEGFP-Rex(B)-mKOk, SEQ ID NO: 174 (Thermus aquaticus, UniProt Q9X2V5, E116G/F189I/K117M/K204T/K47E/R46D/R58D/S30A/Y98W); test: FRET response (emission spectra) of purified initial construct #14 in absence or presence of 40 uM NADH; set-up: key: Good response: Constructs with very clear and robust spectra separation; Poor response: those with noticeable but small spectra separation; No response: those having no spectra separation
Method: as §1

[6] = molecular target: T2, Thermus aquaticus T-Rex FRET fusion, initial construct #4, Rex(78-211)-Rex(78-189)-cpmEGFP(145/146)-Rex(190-211)-mKOk, SEQ ID NO: 164 (Thermus aquaticus, UniProt Q9X2V5, INS189[…]); test: FRET response (emission spectra) of purified initial construct #4 in absence or presence of 40 uM NADH; set-up: key: Good response: Constructs with very clear and robust spectra separation; Poor response: those with noticeable but small spectra separation; No response: those having no spectra separation
T2 construct: His-tag purified from E. coli
Method: as §1

[7] = molecular target: Thermus aquaticus T-Rex FRET fusion, initial construct #9, mKOk-Rex(A)-cpmEGFP(145/146)-Rex(B), SEQ ID NO: 169 (Thermus aquaticus, UniProt Q9X2V5, E116G/F189I/K117M/K204T/K47E/R46D/R58D/S30A/Y98W); test: FRET response (emission spectra) of purified initial construct #9 in absence or presence of 40 uM NADH; set-up: key: Good response: Constructs with very clear and robust spectra separation; Poor response: those with noticeable but small spectra separation; No response: those having no spectra separation
Method: as §1

[8] = molecular target: T3, Thermus aquaticus T-Rex FRET fusion, initial construct #6, Rex(78-189)-cpmEGFP(173/174)-Rex(190-211)-Rex(78-211)-mKOk, SEQ ID NO: 166 (Thermus aquaticus, UniProt Q9X2V5, INS189[…]); test: FRET response (emission spectra) of purified initial construct #6 in absence or presence of 40 uM NADH; set-up: key: Good response: Constructs with very clear and robust spectra separation; Poor response: those with noticeable but small spectra separation; No response: those having no spectra separation
T3 construct: His-tag purified from E. coli
Method: as §1

[9] = molecular target: Thermus aquaticus T-Rex FRET fusion, initial construct #13, mKOk-Rex(A)-mEGFP-Rex(B), SEQ ID NO: 173 (Thermus aquaticus, UniProt Q9X2V5, E116G/F189I/K117M/K204T/K47E/R46D/R58D/S30A/Y98W); test: FRET response (emission spectra) of purified initial construct #13 in absence or presence of 40 uM NADH; set-up: key: Good response: Constructs with very clear and robust spectra separation; Poor response: those with noticeable but small spectra separation; No response: those having no spectra separation
Method: as §1

[10] = molecular target: Thermus aquaticus T-Rex FRET biosensor construct #14 (Rex(A)-mEGFP-Rex(B)-mKOk, SEQ ID NO: 174), library variant 3-C8, SEQ ID NO: 14 (Thermus aquaticus, UniProt Q9X2V5, E116G/F189I/K117M/K47E/R46D/R58D/S30A/Y98W); test: Signal window in bacterial lysates, FRET ratio in presence or absence of 200 uM NADH (Table 2); settings: clone 3-C8, SEQ ID NO: 14
From the text: In specific embodiments, the fusion protein comprises the amino acid sequence selected from the group consisting of SEQ ID NO: 13-93, 95-154, and 191-193; the sequences are provided in Table 2 and the examples.
Protein library DNA was generated following cloning that assembled pieces of DNA that were generated using PCRs with mixtures of primers. DNA was transformed into E. coli, and the first round of protein library expression was done in bacterial colonies on agar plates. The colonies, each expressing different library members, were imaged, and then classified into groups based on their FRET ratio signal. Colonies from different groups were inoculated into 96-deep-well plates for further protein expression in liquid culture. The original construct that was used to generate the library (e.g., construct #14 in Table 2) was also inoculated on the same plates, along with non-expressing bacteria. The latter served as a negative control.

## NC(=O)C1=CN([C@@H]2O[C@H](COP(=O)(O)OP(=O)(O)OC[C@H]3O[C@@H](n4cnc5c(N)ncnc54)[C@H](O)[C@@H]3O)[C@@H](O)[C@H]2O)C=CC1 [NADH]
[1]
  FRET response to NADH: No response
[2]
  FRET response to NADH: Good response
[3]
  FRET response to NADH: Poor response
[4]
  FRET response to NADH: Good response
[5]
  FRET response to NADH: Good response
[6]
  FRET response to NADH: No response
[7]
  FRET response to NADH: No response
[8]
  FRET response to NADH: No response
[9]
  FRET response to NADH: Poor response
[10]
  Signal window (ex mode), measured in lysates: 0.4
